Results published in patent US11534441B2, “MAP4K1 inhibitors” (Blueprint Medicines Corporation, priority 2020, dated 2022).

Key:
MAP4K1 (HPK1) = MAP4K1 (HPK1) (Homo sapiens (Human), UniProt Q92918); assay: MAP4K1 (HPK1) biochemical enzymatic activity, electrophoretic mobility shift (EZReader 2), ATP at APPKM (26 μM)
Method in brief: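 Phosphorylated and unphosphorylated peptide were separated electrophoretically, and the product/substrate peak ratio served as readout. Reactions held 0.1-15 nM HPK1, 1.5 μM fluorescent peptide and 26 μM ATP (apparent Km) in pH 7.5 HEPES buffer with MgCl2 and DTT. Compounds were tested as 4-fold, 10-point dilutions in 1% DMSO for 60-180 min at 25° C, then quenched with EDTA.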

expanded CD3+ T cells = assay: T cell enhancement of cytokines: IL2 measurement (HTRF) in expanded CD3+ T cells stimulated with anti-CD3/anti-CD28; type: cell-based, human; conditions: IL-2 measurement
Method: T cells are isolated from whole blood of healthy donors by immunomagnetic negative selection following manufacture's protocol (StemCell Technologies, human T cell isolation kit). Purity of isolated cells is assessed by flow cytometry and yields 95-98% CD3^+ T cells. For expansion of T cells, 1×10^6 cells/well are plated in serum free cell expansion media (ThermoFisher) containing 30 U of recombinant human IL2 (R&D) and stimulated with 25 ul of CD3/CD28 beads (Invitrogen) in 24 well plates for 3-4 days. T cells are then expanded in 175 cm flasks and maintained at a cell density of 1 to 2.5×10^6 cells/ml days by addition of ⅔ of fresh media every 2-3 days. After 10-14 days, cells are frozen in BamBanker freezing media (Thermo) and stored in liquid nitrogen.
For IL2 measurement, expanded CD3^+ T cells are dispensed at 100K cells/well (cultured in X-VIVO 10 Serum-free media) and are stimulated with plate-bound anti-CD3 and soluble anti-CD28 in the presence of vehicle or compound of the disclosure at various concentrations for 24 h. As outlined in the manufacturer's protocol (Cisbio), 16 μL of conditioned media is transferred to a white 384-well low volume plate. Following a 24 h incubation with the anti-IL2 antibodies, the homogenous time resolved fluorescence (HTRF) is measured.

[1] = Homo sapiens, T-cell, class designation
[2] = Homo sapiens, T-cell, numeric value

Chain of MAP4K1 (HPK1) (Q92918 whole entry): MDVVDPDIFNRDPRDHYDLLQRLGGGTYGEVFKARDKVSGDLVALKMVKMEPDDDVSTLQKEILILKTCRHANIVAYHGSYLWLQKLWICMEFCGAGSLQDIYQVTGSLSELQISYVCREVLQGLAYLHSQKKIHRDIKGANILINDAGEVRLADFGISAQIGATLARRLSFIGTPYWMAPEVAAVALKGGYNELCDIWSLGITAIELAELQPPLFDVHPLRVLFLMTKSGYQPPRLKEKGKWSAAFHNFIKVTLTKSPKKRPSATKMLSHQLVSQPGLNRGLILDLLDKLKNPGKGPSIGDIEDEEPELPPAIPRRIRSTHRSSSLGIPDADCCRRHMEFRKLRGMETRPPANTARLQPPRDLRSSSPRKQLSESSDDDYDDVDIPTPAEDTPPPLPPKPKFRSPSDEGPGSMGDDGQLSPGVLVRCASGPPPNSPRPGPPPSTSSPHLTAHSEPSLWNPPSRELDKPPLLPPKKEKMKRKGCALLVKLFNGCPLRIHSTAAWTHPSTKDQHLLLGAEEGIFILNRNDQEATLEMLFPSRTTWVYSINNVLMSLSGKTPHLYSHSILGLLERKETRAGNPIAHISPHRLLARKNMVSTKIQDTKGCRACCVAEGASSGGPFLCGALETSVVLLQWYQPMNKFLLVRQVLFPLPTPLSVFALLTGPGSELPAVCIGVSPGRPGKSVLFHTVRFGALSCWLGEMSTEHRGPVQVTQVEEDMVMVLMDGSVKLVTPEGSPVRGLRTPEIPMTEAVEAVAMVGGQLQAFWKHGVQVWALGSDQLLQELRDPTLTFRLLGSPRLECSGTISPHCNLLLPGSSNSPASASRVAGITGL

SMILES | IC50 (MAP4K1 (HPK1); class designation) | IC50 (MAP4K1 (HPK1); numeric value) | EC50 (expanded CD3+ T cells; class designation) | EC50 (expanded CD3+ T cells; numeric value) | EC50 (expanded CD3+ T cells; [1]) | EC50 (expanded CD3+ T cells; [2])
COCC(C)(N)c1cnc(OC2CC2)c2cnc(Nc3ccc4c(n3)[C@@H](C)[C@H](C)OC4=O)cc12 (single isomer, unassigned) [Compound 184, (7S,8R)-2-((5-((R)-2-Amino-1-methoxypropan-2-yl)-8-cyclopropoxy-2,7-naphthyridin-3-yl)amino)-7,8-dimethyl-7,8-dihydro-5H-pyrano[4,3-b]pyridin-5-one or (7S,8R)-2-((5-((S)-2-amino-1-methoxypropan-2-yl)-8-cyclopropoxy-2,7-naphthyridin-3-yl)amino)-7,8-dimethyl-7,8-dihydro-5H-pyrano[4,3-b]pyridin-5-one] | < 0.3 nM | 0.27 nM | < 35 nM | 33.4 nM |  | 
COc1ccc(C(C)(C)N)c2cc(Nc3ccnc(C(C)(C)F)n3)ncc12 [Compound 5, 5-(2-Aminopropan-2-yl)-N-(2-(2-fluoropropan-2-yl)pyrimidin-4-yl)-8-methoxyisoquinolin-3-amine] | 0.31 to 1 nM | 0.37 nM |  |  | 35.1 to 45 nM | 37.1 nM
COc1ncc(C(C)(C)N)c2cc(Nc3ccc4c(n3)CC3(CC3)OC4=O)ncc12 [Compound 33] | < 0.3 nM | 0.13 nM |  |  | < 35 nM | 9.3 nM
CNc1ncc(C(C)(C)N)c2cc(Nc3ccc4c(n3)CC(C)(C)OC4=O)ncc12 [Compound 35] | 0.31 to 1 nM | 0.41 nM | < 35 nM | 23.5 nM |  | 
CCOc1ncc(C(C)(C)N)c2cc(Nc3ccc4c(n3)C(C)(C)OC4=O)ncc12 [Compound 45] | 0.31 to 1 nM | 1.03 nM |  |  | > 55 nM | 70.3 nM
COc1cnc(C(C)(C)N)c2cc(Nc3ccc4c(n3)CC(C)(C)OC4=O)ncc12 [Compound 46, 2-((5-(2-Aminopropan-2-yl)-8-methoxy-2,6-naphthyridin-3-yl)amino)-7,7-dimethyl-7,8-dihydro-5H-pyrano[4,3-b]pyridin-5-one] | 0.31 to 1 nM | 0.94 nM |  |  | < 35 nM | 34.3 nM
CNc1ncc(C(C)(C)N)c2cc(Nc3cnc(C#N)c(N4CCC[C@@H]4C)n3)ncc12 [Compound 48] | 1.1 to 10 nM | 1.72 nM |  |  | > 55 nM | 136 nM
CCNc1ncc(C(C)(C)N)c2cc(Nc3ccc4c(n3)CC(C)(C)OC4=O)ncc12 [Compound 53] | 0.31 to 1 nM | 0.36 nM |  |  | < 35 nM | 17.2 nM
CCOc1ncc(C(C)(C)N)c2cc(Nc3ccc4c(n3)CC(C)(C)OC4=O)ncc12 [Compound 54] | < 0.3 nM | 0.25 nM |  |  | < 35 nM | 9.3 nM
CCOc1ncc(C(C)(C)N)c2cc(Nc3ccc4c(n3)[C@@H](C)[C@H](C)OC4=O)ncc12 [Compound 57] | < 0.3 nM | 0.16 nM |  |  | < 35 nM | 5.1 nM
CCOc1ncc(C(C)(C)N)c2cc(Nc3ccc4c(n3)[C@H](C)[C@@H](C)OC4=O)ncc12 [Compound 58] | 0.31 to 1 nM | 0.39 nM |  |  | < 35 nM | 20.4 nM
CC1(C)Cc2nc(Nc3cc4c(C(C)(C)N)cnc(OC5CC5)c4cn3)ccc2C(=O)O1 [Compound 64] | 0.31 to 1 nM | 0.44 nM |  |  | 35.1 to 45 nM | 42.9 nM
C[C@@H]1OC(=O)c2ccc(Nc3cc4c(C(C)(C)N)cnc(OC5CC5)c4cn3)nc2[C@H]1C [Compound 66, (7S, 8R)-2-((5-(2-aminopropan-2-yl)-8-cyclopropoxy-2,7-naphthyridin-3-yl)amino)-7,8-dimethyl-7,8-dihydro-5H-pyrano[4,3-b]pyridin-5-one] | < 0.3 nM | 0.18 nM |  |  | < 35 nM | 8.1 nM
CCOc1ncc(C(C)(C)N)c2cc(Nc3ccc4c(n3)[C@@H](C)C(C)(C)OC4=O)ncc12 [Compound 67] | < 0.3 nM | 0.12 nM |  |  | < 35 nM | 6.2 nM
CCOc1ncc(C(C)(C)N)c2cc(Nc3ccc4c(n3)[C@H](C)C(C)(C)OC4=O)ncc12 [Compound 68] | < 0.3 nM | 0.27 nM |  |  | < 35 nM | 29.5 nM
CC(C)Oc1ncc(C(C)(C)N)c2cc(Nc3ccc4c(n3)CC(C)(C)OC4=O)ncc12 [Compound 69] | 0.31 to 1 nM | 0.88 nM |  |  | 45.1 to 55 nM | 52.8 nM
C[C@H]1c2nc(Nc3cc4c(C(C)(C)N)cnc(OC5CC5)c4cn3)ccc2C(=O)OC1(C)C [Compound 70] | 0.31 to 1 nM | 0.35 nM |  |  | < 35 nM | 20.6 nM
C[C@@H]1c2nc(Nc3cc4c(C(C)(C)N)cnc(OC5CC5)c4cn3)ccc2C(=O)OC1(C)C [Compound 71] | < 0.3 nM | 0.11 nM |  |  | < 35 nM | 7.9 nM
CC1(C)Cc2nc(Nc3cc4c(C(C)(C)N)cnc(OC5CCC5)c4cn3)ccc2C(=O)O1 [Compound 72, 2-((5-(2-Aminopropan-2-yl)-8-cyclobutoxy-2,7-naphthyridin-3-yl)amino)-7,7-dimethyl-7,8-dihydro-5H-pyrano[4,3-b]pyridin-5-one] | 0.31 to 1 nM |  |  |  | 35.1 to 45 nM | 35.5 nM

Next, values leading:

IC50 (MAP4K1 (HPK1); class designation) | IC50 (MAP4K1 (HPK1); numeric value) | EC50 (expanded CD3+ T cells; class designation) | EC50 (expanded CD3+ T cells; numeric value) | EC50 (expanded CD3+ T cells; [1]) | EC50 (expanded CD3+ T cells; [2]) | SMILES
 | 0.36 nM |  |  | > 55 nM | 108 nM | COc1ncc(C(C)(C)N)c2cc(Nc3ccnc(C(C)(C)C)n3)ncc12 [Compound 3, 5-(2-Aminopropan-2-yl)-N-(2-(tert-butyl)pyrimidin-4-yl)-8-methoxy-2,7-naphthyridin-3-amine]
0.31 to 1 nM | 0.91 nM |  |  | < 35 nM | 21.7 nM | COc1ncc(C(C)(C)N)c2cc(Nc3ccnc(C(C)(C)F)n3)ncc12 [Compound 7]
0.31 to 1 nM | 0.33 nM |  |  | < 35 nM | 10.9 nM | COc1ncc(C(C)(C)N)c2cc(Nc3ccc4c(n3)CCNC4=O)ncc12 [Compound 11]
0.31 to 1 nM | 0.31 nM |  |  | < 35 nM | 11 nM | COc1ncc(C(C)(C)N)c2cc(Nc3ccc4c(n3)CCOC4=O)ncc12 [Compound 12]
0.31 to 1 nM | 0.64 nM | 45.1 to 55 nM | 51 nM |  |  | CC[C@H](C)n1nc(Nc2cc3c(C(C)(C)N)cnc(OC)c3cn2)ccc1=O [Compound 14]
0.31 to 1 nM |  |  |  | < 35 nM | 30.9 nM | CC[C@@H](C)n1nc(Nc2cc3c(C(C)(C)N)cnc(OC)c3cn2)ccc1=O [Compound 15]
< 0.3 nM | 0.3 nM | < 35 nM | 27.3 nM |  |  | CC[C@H](C)c1nc(Nc2cc3c(C(C)(C)N)cnc(OC)c3cn2)ccc1C#N [Compound 19]
0.31 to 1 nM | 0.73 nM | 45.1 to 55 nM | 51.1 nM |  |  | CC[C@H](C)c1nc(Nc2cc3c(C(C)(C)N)cnc(OC)c3cn2)cnc1C#N [Compound 20]
0.31 to 1 nM | 0.85 nM | 45.1 to 55 nM | 48.7 nM |  |  | CC[C@@H](C)c1nc(Nc2cc3c(C(C)(C)N)cnc(OC)c3cn2)cnc1C#N [Compound 21]
0.31 to 1 nM | 0.55 nM |  |  | < 35 nM | 14 nM | COc1ncc(C(C)(C)N)c2cc(Nc3ccc4c(n3)C(C)(C)OC4=O)ncc12 [Compound 26]
0.31 to 1 nM | 0.67 nM |  |  | < 35 nM | 31.4 nM | COc1ncc(C(C)(C)N)c2cc(Nc3ccc(C#N)c(C(C)(C)F)n3)ncc12 [Compound 28]
< 0.3 nM | 0.24 nM |  |  | 35.1 to 45 nM | 45.6 nM | COc1ncc(C(C)(C)N)c2cc(Nc3ccc4c(n3)CC(C)(C)CC4=O)ncc12 [Compound 34, 2-((5-(2-Aminopropan-2-yl)-8-methoxy-2,7-naphthyridin-3-yl)amino)-7,7-dimethyl-7,8-dihydroquinolin-5 (6H)-one]
< 0.3 nM | 0.17 nM |  |  | < 35 nM | 15.3 nM | COc1ncc(C(C)(C)N)c2cc(Nc3ccc4c(n3)CC(C)(C)OC4=O)ncc12 [Compound 36]
< 0.3 nM | 0.14 nM |  |  | < 35 nM | 1.9 nM | COc1ncc(C(C)(C)N)c2cc(Nc3ccc4c(n3)[C@@H](C)[C@H](C)OC4=O)ncc12 [Compound 37]
< 0.3 nM | 0.2 nM |  |  | < 35 nM | 5.8 nM | COc1ncc(C(C)(C)N)c2cc(Nc3ccc4c(n3)[C@H](C)[C@@H](C)OC4=O)ncc12 [Compound 38]
< 0.3 nM | 0.18 nM |  |  | < 35 nM | 11.6 nM | COc1ncc(C(C)(C)N)c2cc(Nc3ccc4c(n3)[C@H](C)C(C)(C)OC4=O)ncc12 [Compound 55]
< 0.3 nM | 0.1 nM |  |  | < 35 nM | 6.6 nM | COc1ncc(C(C)(C)N)c2cc(Nc3ccc4c(n3)[C@@H](C)C(C)(C)OC4=O)ncc12 [Compound 56]
